Measurements reported in patent US7615361B2, “Toxicity screening methods” (Ceetox, Inc., priority 2006, dated 2009).

What was measured:
[1] = system: H4IIE cells; experiment: Cell number (propidium iodide); assay type: cell-based, rat; details: rat, 24 h
How it was run: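 Rat hepatoma H4IIE cells exposed to compound in complete medium, then lysed with Triton X-100 containing propidium iodide; fluorescence read at 540/610 nm. Blank-subtracted RFU expressed as percent of untreated control cells, means of n=3-7.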

[2] = system: Bcl2; experiment: bDNA analysis of mRNA in rat cardiomyocytes; assay type: cell-based; details: after 6 hr at 10 μM
Procedure: (§1) Bcl2 is often induced in response to BAX a protein that promotes apoptosis.
(§2) […] Plates were mixed using a DPC 5 Micromix plate shaker at 37° C. for 15-30 minutes to ensure complete lysis of cells. Cell lysis was confirmed using a Nikon inverted microscope. Plates were stored at −80° C. until further analysis.
(§3) bDNA Analysis (Day 1): All solutions were prepared fresh on the day of analysis. Quantigene® bDNA kit components were brought to room temperature prior to use. Chemicals not supplied by Genospectra were obtained from Sigma-Aldrich.
(§4) On the day of analysis, Target Probe Sets were prepared for probe gene sets by adding 25 μL of each probe set component (CE, LE, BL) to 425 μL stock lysis solution using the following probe set concentrations: CE (50 fmol/μL), LE (200 fmol/μL), BL (100 fmol/μL).
(§5) Cell lysis plates were removed from freezer storage and thawed. […] Next, 10 μL of the appropriate Target Probe Set (PS2) was added to each appropriate well of the Capture Plate. Plates were tightly sealed using a plate sealer and incubated at 53° C. for 16-20 hr (overnight).
(§6) bDNA Analysis (Day 2): Wash buffer was prepared in ultra-pure water using 0.1×Saline-Sodium Citrate (SSC) and 0.03% Lithium Lauryl Sulfate (LLS). Amplifier working solution was prepared by adding 10 μL Amplifier to 10 mL Amplifier Diluent per plate.
(§7) Plates were removed from incubator and washed three times with 300 μL wash buffer. […]

[3] = system: BAX; experiment: bDNA analysis of mRNA in rat cardiomyocytes; assay type: cell-based; details: after 1 hr at 10 μM
Procedure: as §1, §2, §3, §4, §5, §6, §7

[4] = system: H4IIE cells; experiment: MTT reduction; assay type: cell-based, rat; details: rat, 24 h
How it was run: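 Rat hepatoma H4IIE cells exposed to compound prepared in complete culture medium, with tetrazolium dye (MTT) reduction used as a mitochondrial-function read-out of cytotoxicity. Values are means of each exposure group (n=3-7).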

[5] = system: iNOS; experiment: bDNA analysis of mRNA in rat cardiomyocytes; assay type: cell-based
Procedure: Nitric oxide was also evaluated since it has been implicated in many pathways related to oxidative stress, apoptosis, and cardiac hypertrophy. More specifically, adriamycin induced mitochondrial toxicity is reduced in the presence of increased iNOS. Thus, a compensatory response to mitochondrial toxicity may be an increase in iNOS (Chaiswing et al., 2005). In this example, rat cardiomyocytes exposed to adriamycin induced iNOS expression more than 15-fold (FIG. 27C).
bDNA Sample Collection and Storage: After 48 hr compound exposure in 96-well plates, 50 μL of stock lysis mixture was added to each 100 μL well. Plates were mixed using a DPC 5 Micromix plate shaker at 37° C. for 15-30 minutes to ensure complete lysis of cells. Cell lysis was confirmed using a Nikon inverted microscope. Plates were stored at −80° C. until further analysis.
bDNA Analysis (Day 1): All solutions were prepared fresh on the day of analysis. Quantigene® bDNA kit components were brought to room temperature prior to use. […]
Substrate working solution was prepared by adding 30 μL of 10% Lithium Lauryl Sulfate to 10 mL Substrate solution per plate. […] Upon completion of last incubation, luminescence was measured using a Packard Fusion or equivalent plate reader with plate heater set to 46° C. Data were collected as relative light units (RLU) and expressed as fold change relative to controls after background subtract.

## COc1cccc2c1C(=O)c1c(O)c3c(c(O)c1C2=O)C[C@@](O)(C(=O)CO)C[C@@H]3O[C@H]1C[C@H](N)[C@H](O)[C@H](C)O1 [ADRIAMYCIN, Adriamycin]
[1]
  CC50: 9 µM
[2]
  Bcl2 induction: 6 fold
[3]
  BAX increase: 3 fold
[4]
  CC50: 26 µM
  MTT affected less in liver cells compared to myocytes: approximately 13 fold
[5]
  iNOS expression induction: more than 15 fold
